What was measured:
[1] = system: uterine wet weight in ovariectomized Sprague-Dawely rats; assay: Uterine wet weight assay (PR agonists); type: in vivo, rat; details: for effect on uterine wet weight when co-administered with estrone: MPA and Compound 210 at 0.3, 1.0 and 3.0 mg/rat, Compound 163 at 3 mg/rat
Source text: The effectiveness of selected compounds of the present invention as PR agonists was investigated in the well recognized uterine wet weight assay, as described in G. J. Marcus, “Mitosis in the rat uterus during the estrous cycle, early pregnancy and early pseudopregnancy”, 10 Biol. Reprod., 447 (1974), S. […] J. Obstet. […] I. Dorfman, “Estrogens” (Ch. 2) and “Antiestrogens” (Ch. 3). in Methods in Hormone Research, ed. R. I. Dorfman, Academic Press, New York, New York, pp101-130 (1969), the disclosures of which are herein incorporated by reference. Four to five week old, ovariectomized, Sprague-Dawely rats (Harlan-Sprague-Dawely, Indianapolis, Ind.) were obtained 1 week after surgery and allowed to acclimate for an additional week after shipment. […] Louis, Mo.) a synthetic estrogen agonist, were fully dissolved in purified sesame oil (Croda, Parsippany, N.J.). […] Additional control groups of rats were administered estrone or vehicle (i.e. sesame oil) alone. Animals were sacrificed on the fourth day of the experiment.

[2] = target: T1, human glucocorticoid receptor (GR) (Homo sapiens, UniProt P04150); assay: Co-transfection assay, GR antagonist activity, CV-1 cells (pRShGR); type: cell-based; details: for GR Antagonist CV-1 Cells Efficacy (%): Table 4, antagonist mode, % maximal inhibition
T1 construct: expressed in transfected cells; host or cells: CV-1 cells, transient transfection
T1 sequence (P04150 1-777): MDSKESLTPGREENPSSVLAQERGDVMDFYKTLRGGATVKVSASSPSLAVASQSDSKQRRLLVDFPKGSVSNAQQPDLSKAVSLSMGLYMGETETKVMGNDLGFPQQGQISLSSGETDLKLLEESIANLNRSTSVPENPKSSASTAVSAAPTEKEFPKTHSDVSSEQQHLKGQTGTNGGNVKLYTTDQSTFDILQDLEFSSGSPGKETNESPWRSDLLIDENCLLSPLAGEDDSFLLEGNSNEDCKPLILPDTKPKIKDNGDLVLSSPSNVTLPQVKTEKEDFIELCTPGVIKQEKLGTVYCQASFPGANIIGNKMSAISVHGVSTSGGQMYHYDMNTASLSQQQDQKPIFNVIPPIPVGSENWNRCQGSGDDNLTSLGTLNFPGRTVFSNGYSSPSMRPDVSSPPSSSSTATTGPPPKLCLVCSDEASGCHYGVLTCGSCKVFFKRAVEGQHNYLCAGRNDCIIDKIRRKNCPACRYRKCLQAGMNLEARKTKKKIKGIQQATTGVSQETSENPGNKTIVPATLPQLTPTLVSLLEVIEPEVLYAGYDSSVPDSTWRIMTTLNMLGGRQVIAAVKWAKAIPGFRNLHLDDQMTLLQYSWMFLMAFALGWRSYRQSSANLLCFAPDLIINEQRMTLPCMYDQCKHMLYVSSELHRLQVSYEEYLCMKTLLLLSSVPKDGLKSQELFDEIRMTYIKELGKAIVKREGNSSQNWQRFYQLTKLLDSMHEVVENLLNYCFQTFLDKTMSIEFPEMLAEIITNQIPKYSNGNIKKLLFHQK

[3] = target: T2, human mineralocorticoid receptor (MR) (Homo sapiens, UniProt P08235); assay: Co-transfection assay, MR antagonist activity, CV-1 cells (pRShMR); type: cell-based; details: Table 4; antagonist mode; % maximal inhibition
T2 construct: expressed in transfected cells; host or cells: CV-1 cells, transient transfection
T2 sequence (P08235 1-984): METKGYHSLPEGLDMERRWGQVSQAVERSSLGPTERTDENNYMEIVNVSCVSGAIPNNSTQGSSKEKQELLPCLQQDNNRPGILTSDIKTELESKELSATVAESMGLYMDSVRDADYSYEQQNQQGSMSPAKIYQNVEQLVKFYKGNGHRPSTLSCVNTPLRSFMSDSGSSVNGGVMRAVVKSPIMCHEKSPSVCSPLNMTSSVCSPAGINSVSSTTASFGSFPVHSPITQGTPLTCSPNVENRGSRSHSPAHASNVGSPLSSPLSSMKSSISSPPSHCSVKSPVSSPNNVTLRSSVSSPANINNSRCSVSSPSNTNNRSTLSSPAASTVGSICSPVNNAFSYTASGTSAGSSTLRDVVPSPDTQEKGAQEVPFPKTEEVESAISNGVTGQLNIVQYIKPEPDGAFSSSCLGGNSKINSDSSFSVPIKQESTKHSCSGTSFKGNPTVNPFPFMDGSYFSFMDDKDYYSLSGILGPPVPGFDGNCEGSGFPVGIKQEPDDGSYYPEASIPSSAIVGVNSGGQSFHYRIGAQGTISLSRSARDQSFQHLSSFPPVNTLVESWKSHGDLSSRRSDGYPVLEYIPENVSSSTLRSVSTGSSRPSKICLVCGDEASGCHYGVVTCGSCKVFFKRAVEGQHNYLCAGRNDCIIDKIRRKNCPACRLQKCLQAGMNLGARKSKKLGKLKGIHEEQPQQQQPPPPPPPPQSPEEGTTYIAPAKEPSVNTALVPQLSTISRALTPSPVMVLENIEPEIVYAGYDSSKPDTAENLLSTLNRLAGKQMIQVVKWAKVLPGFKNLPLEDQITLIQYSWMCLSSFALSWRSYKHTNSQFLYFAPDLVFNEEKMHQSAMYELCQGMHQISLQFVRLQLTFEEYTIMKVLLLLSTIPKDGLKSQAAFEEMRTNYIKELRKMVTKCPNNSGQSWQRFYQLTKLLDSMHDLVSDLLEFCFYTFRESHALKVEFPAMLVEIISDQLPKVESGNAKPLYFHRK

[4] = 0.3 mg/rat oral once a day for three days + E1 10 μg
[5] = 1.0 mg/rat oral once a day for three days + E1 10 μg
[6] = 3.0 mg/rat oral once a day for three days + E1 10 μg

CCCCC1Oc2ccc(F)cc2-c2ccc3c(c21)C(C)=CC(C)(C)N3 (racemic) [Compound 210, (R/S)-5-Butyl-9-fluoro-1,2-dihydro-2,2,4-trimethyl-5H-chromeno[3,4-f]quinoline]
Mean Uterine Wet Weight [1, 4]: 110 mg | Mean Uterine Wet Weight [1, 5]: 100 mg | Mean Uterine Wet Weight [1, 6]: 100 mg | effect on uterine wet weight when co-administered with estrone [1]: decreased by approximately half

CC(=O)O[C@]1(C(C)=O)CC[C@H]2[C@@H]3C[C@H](C)C4=CC(=O)CC[C@]4(C)[C@H]3CC[C@@]21C [MPA, medroxyprogesterone acetate, reference compound]
Mean Uterine Wet Weight [1, 4]: 140 mg | Mean Uterine Wet Weight [1, 5]: 130 mg | Mean Uterine Wet Weight [1, 6]: 130 mg | effect on uterine wet weight when co-administered with estrone [1]: significantly decreased

CC#C[C@]1(O)CC[C@H]2[C@@H]3CCC4=CC(=O)CCC4=C3[C@@H](c3ccc(N(C)C)cc3)C[C@@]21C [RU486, (11 beta, 17 beta)-11-[4-(dimethylamino)phenyl]-17-hydroxy-17-(1-propynyl)estra-4,9-dien-3-one, reference compound]
GR Antagonist CV-1 Cells Efficacy (%) [2]: 100% | MR Antagonist CV-1 Cells Efficacy (%) [3]: 77%

CC(=O)S[C@@H]1CC2=CC(=O)CC[C@]2(C)[C@H]2CC[C@@]3(C)[C@@H](CC[C@@]34CCC(=O)O4)[C@H]12 [Spir, reference compound]
IC50 [2]: 2000 nM | GR Antagonist CV-1 Cells Efficacy (%) [2]: 80% | MR Antagonist CV-1 Cells Efficacy (%) [3]: 96%
